ChEMBL document CHEMBL3393018, “Multimodal biopanning of T7 phage-displayed peptides reveals angiomotin as a potential receptor of the anti-angiogenic macrolide Roxithromycin” (Eur J Med Chem, 2015)
The source made the active and inactive calls. No cut-off for these calls is given here.

Key:
[1] = target: T1, Angiomotin (Homo sapiens) (UniProt Q4VCS5); assay: Binding affinity to recombinant GST-tagged Amot (H343 to I675 residues) (unknown origin) expressed in Escherichia coli at 25 uM using Amot immobilized on gold electrode of QCM sensor chip by […] biosensor-based assay
T1 sequence (whole entry): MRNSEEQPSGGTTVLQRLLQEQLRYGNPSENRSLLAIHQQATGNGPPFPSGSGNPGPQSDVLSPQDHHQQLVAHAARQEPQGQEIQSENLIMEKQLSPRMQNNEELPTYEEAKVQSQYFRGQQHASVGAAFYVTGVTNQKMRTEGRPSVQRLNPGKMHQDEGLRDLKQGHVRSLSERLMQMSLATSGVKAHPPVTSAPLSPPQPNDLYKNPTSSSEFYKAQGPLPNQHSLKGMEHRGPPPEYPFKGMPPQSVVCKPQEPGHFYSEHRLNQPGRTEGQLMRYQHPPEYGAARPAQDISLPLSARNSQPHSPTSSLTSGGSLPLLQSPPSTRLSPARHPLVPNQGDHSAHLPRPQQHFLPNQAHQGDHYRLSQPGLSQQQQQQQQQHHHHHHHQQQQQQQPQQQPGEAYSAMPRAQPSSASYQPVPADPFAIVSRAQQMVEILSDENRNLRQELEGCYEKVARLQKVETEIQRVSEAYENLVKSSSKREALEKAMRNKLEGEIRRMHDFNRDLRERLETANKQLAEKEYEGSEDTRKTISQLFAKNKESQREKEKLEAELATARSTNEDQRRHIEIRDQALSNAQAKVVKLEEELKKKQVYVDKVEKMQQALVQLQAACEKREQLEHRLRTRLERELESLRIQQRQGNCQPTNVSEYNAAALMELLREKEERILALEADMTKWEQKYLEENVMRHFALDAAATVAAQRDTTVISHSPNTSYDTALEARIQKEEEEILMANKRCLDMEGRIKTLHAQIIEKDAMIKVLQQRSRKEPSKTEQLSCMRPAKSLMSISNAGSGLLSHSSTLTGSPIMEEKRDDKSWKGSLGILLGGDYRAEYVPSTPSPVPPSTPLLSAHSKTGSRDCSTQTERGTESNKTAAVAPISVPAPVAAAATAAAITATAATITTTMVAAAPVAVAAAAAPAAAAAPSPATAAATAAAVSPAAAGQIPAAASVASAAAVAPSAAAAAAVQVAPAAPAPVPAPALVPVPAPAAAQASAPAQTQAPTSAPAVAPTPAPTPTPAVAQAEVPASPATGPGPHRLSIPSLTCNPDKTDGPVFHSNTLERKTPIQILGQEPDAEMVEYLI

HUVEC = assay: Inhibition of cell proliferation of HUVEC at 12.5 to 200 uM after 72 hrs by MTS assay; format: functional, cell-based; conditions: Homo sapiens
[2] = target: T1, Angiomotin (Homo sapiens); assay: Binding affinity to recombinant GST-tagged Amot (H343 to I675 residues) (unknown origin) expressed in Escherichia coli at 50 uM using Amot immobilized on gold electrode of QCM sensor chip by […] biosensor-based assay

In the case of `CC[C@H]1OC(=O)[C@H](C)[C@@H](O[C@H]2C[C@@](C)(OC)[C@@H](O)[C@H](C)O2)[C@H](C)[C@@H](O[C@@H]2O[C@H](C)C[C@H](N(C)C)[C@H]2O)[C@](C)(O)C[C@@H](C)/C(=N\OCOCCOC)[C@H](C)[C@@H](O)[C@]1(C)O` [ROXITHROMYCIN], the Activity [1] is reported as “Active”, the IC50 (HUVEC) is reported as 100 µM and the Activity [2] is reported as “Active”.
